Values quoted from earlier work as cited in PubChem BioAssay AID1259409 (Chemical Carcinogenesis Research Information System (CCRIS), 2018).

System: rodent chemically induced tumor inhibition, incidence and multiplicity
Assay: CCRIS tumor inhibitor studies
Settings: Dose [Inhibitor]: 0

SMILES | tumour outcome (control, treated, inhibition, significance) (Carcinogen: 7,12-DIMETHYLBENZ[A]ANTHRACENE, 57-97-6, 33 UG 2/WK FOR 15 WK APPLIED 1 HR PRIOR TO EACH PROMOTER DOSE (STUDY DURATION: 15 WK), Route [Inhibitor]: DERMAL, Species: MOUSE, Strain/Sex: CD-1/FEMALE, Target Tissue: Type of Lesion: SKIN: TUMOR, Dose [Carcinogen]: 100 UG ONCE, Promoter: 12-O-TETRADECANOYLPHORBOL-13-ACETATE, 16561-29-8) | tumour outcome (control, treated, inhibition, significance) (Carcinogen: 7,12-DIMETHYLBENZ[A]ANTHRACENE, 57-97-6, 330 UG 2/WK FOR 15 WK APPLIED 1 HR PRIOR TO EACH PROMOTER DOSE (STUDY DURATION: 15 WK), Route [Inhibitor]: DERMAL, Species: MOUSE, Strain/Sex: CD-1/FEMALE, Target Tissue: Type of Lesion: SKIN: TUMOR, Dose [Carcinogen]: 100 UG ONCE, Promoter: 12-O-TETRADECANOYLPHORBOL-13-ACETATE, 16561-29-8) | tumour outcome (control, treated, inhibition, significance) (Carcinogen: N-METHYL-N-NITROSOUREA, 684-93-5, 2 MG/KG BW 5 D/WK FOR DURATION OF STUDY BEGINNING 2 WK PRIOR TO CARCINOGEN DOSE (STUDY DURATION: 194 D), Route [Inhibitor]: GAVAGE, Species: RAT, Strain/Sex: SPRAGUE-DAWLEY/FEMALE, Target Tissue: Type of Lesion: MAMMARY GLAND: ADENOCARCINOMA, Dose [Carcinogen]: 50 MG/KG BW ONCE, Promoter: NONE USED) | tumour outcome (control, treated, inhibition, significance) (Carcinogen: N-METHYL-N-NITROSOUREA, 684-93-5, 4 MG/KG BW 5 D/WK FOR DURATION OF STUDY BEGINNING 2 WK PRIOR TO CARCINOGEN DOSE (STUDY DURATION: 194 D), Route [Inhibitor]: GAVAGE, Species: RAT, Strain/Sex: SPRAGUE-DAWLEY/FEMALE, Target Tissue: Type of Lesion: MAMMARY GLAND: ADENOCARCINOMA, Dose [Carcinogen]: 50 MG/KG BW ONCE, Promoter: NONE USED) | tumour outcome (control, treated, inhibition, significance) (Carcinogen: N-NITROSODIETHYLAMINE, 55-18-5, 5% IN BASAL DIET BEGINNING AT 8 WK OF AGE AND CONTINUING FOR 22 MO (STUDY DURATION: 22 MO), Route [Inhibitor]: ORAL, Species: MOUSE, Strain/Sex: 6HF1/MALE, Target Tissue: Type of Lesion: ESOPHAGUS: SQUAMOUS CELL CARCINOMA, Dose [Carcinogen]: 100 MG/L IN DRINKING WATER DURING 11-13 WK OF AGE, Promoter: NONE USED) | tumour outcome (control, treated, inhibition, significance) (Carcinogen: N-NITROSODIETHYLAMINE, 55-18-5, 5% IN BASAL DIET BEGINNING AT 8 WK OF AGE AND CONTINUING FOR 22 MO (STUDY DURATION: 22 MO), Route [Inhibitor]: ORAL, Species: MOUSE, Strain/Sex: 6HF1/MALE, Target Tissue: Type of Lesion: FORESTOMACH: SQUAMOUS CELL CARCINOMA, Dose [Carcinogen]: 100 MG/L IN DRINKING WATER DURING 11-13 WK OF AGE, Promoter: NONE USED) | tumour outcome (control, treated, inhibition, significance) (Carcinogen: N-NITROSODIETHYLAMINE, 55-18-5, 5% IN BASAL DIET BEGINNING AT 8 WK OF AGE AND CONTINUING FOR 22 MO (STUDY DURATION: 22 MO), Route [Inhibitor]: ORAL, Species: MOUSE, Strain/Sex: 6HF1/MALE, Target Tissue: Type of Lesion: LIVER: TUMOR, Dose [Carcinogen]: 100 MG/L IN DRINKING WATER DURING 11-13 WK OF AGE, Promoter: NONE USED) | tumour outcome (control, treated, inhibition, significance) (Carcinogen: N-NITROSODIETHYLAMINE, 55-18-5, 5% IN BASAL DIET BEGINNING AT 8 WK OF AGE AND CONTINUING FOR 22 MO (STUDY DURATION: 22 MO), Route [Inhibitor]: ORAL, Species: MOUSE, Strain/Sex: 6HF1/MALE, Target Tissue: Type of Lesion: LUNG: TUMOR, Dose [Carcinogen]: 100 MG/L IN DRINKING WATER DURING 11-13 WK OF AGE, Promoter: NONE USED)
COc1cc2c(cc1OC)[C@@H]1C(=O)c3ccc4c(c3O[C@@H]1CO2)C=CC(C)(C)O4 | 60%, 10%, 83%, p<0.05 | 60%, 0%, 100%, p<0.05 | 100%, 100%, 0%, not significant | 100%, 100%, 0%, not significant |  |  |  | 
Cc1c(O)cc2c(c1C)OC(C)(CCCC(C)CCCC(C)CCCC(C)C)CC2 (stereo not drawn) |  |  |  |  | 6/50 (12%), 0/50 (0%), 100%, not calculated | 82%, 72%, 12%, not calculated | 39/50 (78%), 40/50 (80%), -3%, not calculated | 42/50 (84%), 24/50 (48%), 43%, p<0.05
